Reference: ChEMBL document CHEMBL1121545, “Synthesis of potential inhibitors of hypoxanthine-guaine phosphoribosyltransferase for testing as antiprotozoal agents. 2. 1-Substituted hypoxanthines” (1980)
Activity calls are given as the source filed them. The rule behind the calls is not given here.

Legend:
Mus musculus [1] = organism: Mus musculus; experiment: Compound was tested for ability to extend the life span of Plasmodium berghei infected mice (Mus musculus); no activity; type: functional, organism-based
[2] = target: T1, Hypoxanthine-guanine phosphoribosyltransferase (Homo sapiens) (UniProt P00492); experiment: Compound was tested for the inhibition of Hypoxanthine-Guanine Phosphoribosyltransferase (from H.Ep.2 cells); no activity
T1 sequence (whole entry): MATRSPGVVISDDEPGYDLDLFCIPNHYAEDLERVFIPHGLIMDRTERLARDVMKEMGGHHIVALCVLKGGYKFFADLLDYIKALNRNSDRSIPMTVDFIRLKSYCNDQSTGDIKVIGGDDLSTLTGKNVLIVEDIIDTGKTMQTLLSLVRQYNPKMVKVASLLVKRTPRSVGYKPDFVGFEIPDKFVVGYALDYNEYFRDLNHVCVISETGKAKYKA

Mus musculus [3] = experiment: Compound was tested for the effective dose required for the inhibition of Trypanosoma rhodesiense in mice at 424 mg/kg dose in mice; (2 mice survived of 5 treated); type: functional
Mus musculus [4] = experiment: Compound was tested for the effective dose required for the inhibition of Trypanosoma rhodesiense in mice at 106 mg/kg dose in mice; (1 mice survived of 5 treated); type: functional
Mus musculus [5] = experiment: Compound was tested for the effective dose required for the inhibition of Trypanosoma rhodesiense in mice at 212 mg/kg dose in mice; (1 mice survived of 5 treated); type: functional

Row | Structure (SMILES) | Activity (Mus musculus [1]) | Activity [2] | Survivals (Mus musculus [3]) | Activity (Mus musculus [4]) | Survivals (Mus musculus [5])
1 | NCCn1cnc2ncnc-2c1O | inactive | inactive |  |  | 
2 | O=C(Nc1ccc(Cn2cnc3ncnc-3c2O)cc1)c1ccc(S(=O)(=O)F)cc1 | inactive | inactive |  |  | 
3 | O=C(CBr)Nc1ccc(Cn2cnc3ncnc-3c2O)cc1 | inactive | inactive |  |  | 
4 | O=[N+]([O-])c1ccc(Cn2cnc3ncnc-3c2O)cc1 | inactive | inactive |  |  | 
5 | [N-]=[N+]=NCCn1cnc2ncnc-2c1O | inactive | inactive |  |  | 
6 | Nc1ccc(Cn2cnc3ncnc-3c2O)cc1 | inactive | inactive |  |  | 
7 | O=C(CBr)NCCn1cnc2ncnc-2c1O |  |  | 2 | 1 | 1
8 | O=C(Nc1ccc(Cn2cnc3ncnc-3c2O)cc1)c1cccc(S(=O)(=O)F)c1 | inactive | inactive |  |  | 
9 | O=C(Nc1ccc(Cn2cnc3ncnc-3c2O)cc1)c1ccc(Cl)cc1 | inactive | inactive |  |  | 
10 | OCCOc1[nH]cnc2ncnc1-2 | inactive | inactive |  |  | 
11 | Oc1c2ncnc-2ncn1CCCl | inactive | inactive |  |  | 
